Source: patent publication US10189795B2, “Aryl amine substituted quinoxaline used as anticancer drugs” (priority 2014, dated 2019)

How the values were obtained:
Type in all cases: cell-based
[1] = test system: SW900; assay: cell viability of SW900 cells, 1 and 10 uM; conditions: Homo sapiens
Method: [Worded in the source for another cell line; this cell line is reported under the same test.] (§1) Sorafenib (Nexavar), erlotinib (Tarceva) and Paclitaxel were kindly provided by Bayer Pharmaceuticals (Pittsburgh, Pa., USA) and Roche Pharmaceuticals (Basel, Switzerland) respectively. Okadaic acid (OA) was purchased from Cayman Chemical (Ann Arbor, Mich., USA) and z-VAD-fmk was obtained from Sigma (St. Louis, Mo., USA). For in vitro studies, drugs at various concentrations were dissolved in dimethyl sulfoxide (DMSO), and added to cells in Dulbecco's modified Eagle's medium (DMEM) or Roswell Park Memorial Institute (RPMI) containing 5% fetal bovine serum (FBS).
(§2) The Sk-Hep1, PLC/PRF/5 (PLC) and Hep3B cell lines were obtained from American Type Culture Collection (ATCC; Manassas, Va., USA). The Huh-7 HCC cell line was obtained from the Health Science Research Resources Bank (HSRRB; Osaka, Japan; JCRB0403). Cells were maintained in DMEM supplemented with 10% FBS in a 37° C. humidified incubator in an atmosphere of 5% CO^2 in air.

[2] = test system: H2170; assay: cell viability of H2170 cells, 1 and 10 uM; conditions: Homo sapiens, NCI-H2170
Method: [Worded in the source for another cell line; this cell line is reported under the same test.] as §1, §2

[3] = test system: H520; assay: cell viability of H520 cells, 1 and 10 uM; conditions: Homo sapiens, NCI-H520
Method: [Worded in the source for another cell line; this cell line is reported under the same test.] as §1, §2

[4] = test system: NCI-1703; assay: cell viability of NCI-1703 cells, 1 and 10 uM of each erlotinib derivative, and IC50; conditions: Homo sapiens; for IC50: cell viability
Method: [Worded in the source for another cell line; this cell line is reported under the same test.] as §1, §2

[5] = test system: NCI-H226; assay: cell viability of NCI-H226 cells, 1 and 10 uM; conditions: Homo sapiens
Method: [Worded in the source for another cell line; this cell line is reported under the same test.] as §1, §2

[6] = test system: H358; assay: cell viability of H358 cells, 1 and 10 uM; conditions: Homo sapiens, NCI-H358
Method: [Worded in the source for another cell line; this cell line is reported under the same test.] as §1, §2

[7] = test system: A549; assay: cell viability of A549 cells, 1 and 10 uM; conditions: Homo sapiens
Method: [Worded in the source for another cell line; this cell line is reported under the same test.] as §1, §2

Compound | viability at 1 µM [1] [%] | viability at 10 µM [1] [%] | viability at 1 µM [2] [%] | viability at 10 µM [2] [%] | viability at 1 µM [3] [%] | viability at 10 µM [3] [%] | viability at 1 µM [4] [%] | viability at 10 µM [4] [%] | viability at 1 µM [5] [%] | viability at 10 µM [5] [%] | viability at 1 µM [6] [%] | viability at 10 µM [6] [%] | IC50 [4] [nM] | viability at 1 µM [7] [%] | viability at 10 µM [7] [%]
c1ccc(CNc2nc3ccccc3nc2NCc2ccccc2)cc1 [TD54, N^2,N^3-dibenzylquinoxaline-2,3-diamine] | 125 ± 27 | 126 ± 10.6 | 100 ± 4.93 | 79.1 ± 7.69 | 118 ± 3 | 102 ± 1.46 | 127 ± 2 | 96.7 ± 4.2 | 120 ± 4.9 | 110.9 ± 0.8 | – | – | – | – | –
Clc1cccc(Nc2nc3ccccc3nc2Nc2cccc(Cl)c2)c1 [TD56, N^2,N^3-bis(3-chlorophenyl)quinoxaline-2,3-diamine] | 118 ± 5.41 | 1.46 ± 3.6 | 95 ± 0.91 | 32.5 ± 14.1 | 98.4 ± 6.37 | 4.76 ± 0.24 | 49.9 ± 4.7 | 28.8 ± 2.3 | 115.4 ± 0.8 | 19 ± 2 | – | – | – | – | –
COC(=O)c1ccc2nc(Nc3ccc(OC(F)(F)F)cc3)c(Nc3ccc(OC(F)(F)F)cc3)nc2c1 [TD94, methyl 2,3-bis((4-(trifluoromethoxy)phenyl)amino)quinoxaline-6-carboxylate] | – | – | – | – | – | – | 29.9 ± 6.8 | 19.5 ± 1.1 | 32.1 ± 2.7 | 8 ± 0.1 | 13 ± 0.2 | 15.7 ± 5.9 | 100 | 49 ± 6.5 | 10.8 ± 0.9
O=[N+]([O-])c1ccc2nc(Nc3ccc(F)cc3)c(Nc3ccc(F)cc3)nc2c1 [TD620, N^2,N^3-bis(4-fluorophenyl)-6-nitroquinoxaline-2,3-diamine] | – | – | – | – | – | – | 26.2 ± 0.6 | 21 ± 1.7 | 132 ± 5 | 17.9 ± 0.6 | 24.2 ± 1.4 | 12.6 ± 0.7 | 300 | 48.7 ± 8.4 | 7.8 ± 0.4
O=[N+]([O-])c1ccc2nc(Nc3ccc(Cl)c(F)c3)c(Nc3ccc(Cl)c(F)c3)nc2c1 [TD624, N^2,N^3-bis(4-chloro-3-fluorophenyl)-6-nitroquinoxaline-2,3-diamine] | – | – | – | – | – | – | 90.8 ± 4.8 | – | 15.7 ± 0.8 | – | 11.9 ± 1 | – | – | 14.3 ± 3.6 | –
C#Cc1cccc(Nc2nc3cc([N+](=O)[O-])ccc3nc2Nc2ccc(O)cc2C)c1 [TD625, 4-(2-(3-ethynylphenylamino)-7-nitroquinoxalin-3-ylamino)-3-methylphenol] | – | – | – | – | – | – | 224 ± 7 | – | 115 ± 7.2 | – | 92.6 ± 7.4 | – | – | 73.7 ± 3 | –
COc1ccc(Nc2nc3ccc([N+](=O)[O-])cc3nc2Nc2ccc(C(F)(F)F)cc2)cc1 [TD626, N^3-(4-(trifluoromethyl)phenyl)-N^2-(4-methoxyphenyl)-6-nitroquinoxaline-2,3-diamine] | – | – | – | – | – | – | 111 ± 1.3 | – | 39 ± 2.2 | – | 24.3 ± 3.6 | – | – | 40.4 ± 0.8 | –
Cc1cc(Nc2nc3ccc([N+](=O)[O-])cc3nc2Nc2ccc(O)cc2)n[nH]1 [TD628, 4-(2-(5-methyl-1H-pyrazol-3-ylamino)-6-nitroquinoxalin-3-ylamino)phenol] | – | – | – | – | – | – | 147 ± 4.5 | – | 152 ± 1.7 | – | 140 ± 7.3 | – | – | – | –
NS(=O)(=O)c1ccc(Nc2nc3ccc([N+](=O)[O-])cc3nc2Nc2ccc(S(N)(=O)=O)cc2)cc1 [TD629, N^2,N^3-bis(4-phenylsulfonamide)-6-nitroquinoxaline-2,3-diamine] | – | – | – | – | – | – | 132.8 ± 1 | – | 140 ± 1.6 | – | 113 ± 3.6 | – | – | 118 ± 1.2 | –
COc1ccc(Nc2nc3ccc([N+](=O)[O-])cc3nc2Nc2ccc(F)cc2)cc1 [TD631, N^3-(4-fluorophenyl)-N^2-(4-methoxyphenyl)-6-nitroquinoxaline-2,3-diamine] | – | – | – | – | – | – | 42.5 ± 2.8 | – | 35.8 ± 6.9 | – | 40.4 ± 1.9 | – | – | 58.9 ± 3.1 | –
